Measurements published in patent US20250100977A1, “MERCAPTOPYRIMIDINE COMPOUNDS THAT INHIBIT NONHOMOLOGOUS END JOINING AND METHODS THEREOF” (INDIAN INSTITUTE OF SCIENCE, priority 2021, published 2025).
Several values for one entry are separate records, joined by “and”; a condition that tells them apart may be missing. Identical values can stand only once.

How the values were obtained:
Ligase I = target: T1, Ligase I (Homo sapiens, UniProt P18858); assay: Inhibition of end joining by purified Ligase I; type: biochemical; conditions: up to highest concentration of 1000 μM
T1 construct: made in house; host or cells: bacteria
Protocol: The compounds of the present invention were analysed for inhibition of end joining with purified Ligase I (FIG. 3A) and Ligase III/XRCC1 (FIG. 3F). The compounds were incubated with either purified Ligase I (FIG. 3B-E) or with Ligase III/XRCC1 (FIGS. 3G-J) in suitable NHEJ buffer at 25° C. for 30 min, followed by addition of radiolabeled DNA, and further incubation for 1 h at 25° C. Products were purified using phenol: chloroform, and run on denaturing PAGE.
Effects of these compounds on NHEJ and Ligase IV mediated joining were evaluated (FIG. 4A-K). The reactions were terminated by EDTA (10 mM), products were purified using phenol/chloroform, precipitated with chilled ethanol and glycogen, and resolved on 8% denaturing PAGE. The gel was dried, exposed, and signal was detected using phosphor Imager FLA9000 (Fuji, Japan), and quantified in MultiGauge software expressed as Photo Stimulated Luminescence Units (PSLU). Inhibition of end joining was reported at 200 μM and 100 μM, respectively for SCR116 and SCR132 (FIGS. 4A, B, C and D), with >50% inhibition at 200 and 100 μM concentrations, respectively. […] FIG. 4K depict the purification profile of Ligase IV and XRCC4. […]

CEM = assay: Cytotoxicity in CEM; type: cell-based; conditions: Homo sapiens, CCRF-CEM; Table 2; read-out: IC50 in cancer cell lines, CEM
Protocol: (§1) Ligase IV specificity of the compounds of the present invention inside the cells were also determined using Ligase IV knock out (KO) cell line N114 compared to the wild type Nalm6 (Table 2, FIGS. 5C, D, E and F). […] Table 1 showing IC50 of SCR7 derivatives in cancer cell lines Nalm6 and HeLa. IC50 was calculated using GraphPad Prism software from the percentage of viable cells following treatment with the compounds at 48 h. Table 2 showing IC50 of SCR116 and SCR132 in a panel of 16 cancer cell lines.

[1] = tested on: Ligase IV knock out (KO) cell line N114; assay: Cytotoxicity in Ligase IV knock out cell line N114; type: cell-based; conditions: Table 2, 48 h, read-out: IC50 in cancer cell lines, N114
Protocol: as §1

L1210 = assay: Cytotoxicity in L1210; type: cell-based; conditions: Mus musculus, L1210; Table 2; read-out: IC50 in cancer cell lines, L1210
Protocol: as §1

Molt3 = assay: Cytotoxicity in Molt3; type: cell-based; conditions: Homo sapiens, MOLT-3; Table 2; read-out: IC50 in cancer cell lines, Molt3
Protocol: as §1

MCF7 = assay: Cytotoxicity in MCF7; type: cell-based; conditions: Homo sapiens, MCF7; Table 2; read-out: IC50 in cancer cell lines, MCF7
Protocol: as §1

[2] = tested on: V(D)J recombination in Nalm6 (pGG51); assay: V(D)J recombination in Nalm6 using pGG51; type: cell-based; conditions: for Fold reduction in recombination efficiency: vs vehicle control
Protocol: Evaluation of efficiency of V(D)J recombination following treatment with SCR116 and SCR132 was carried out as depicted in FIGS. 6(A-C). Tables 4 and 5 summarize the effect of SCR116 (1 and 2 μM) and SCR132 (0.5 and 1 μM) on V(D)J recombination in Nalm6 using pGG49 and pGG51, respectively.

HeLa cells = assay: Neutral comet assay in HeLa cells; type: cell-based; conditions: 24 h; SCR116 5 μM, SCR132 2 μM; radiation 0.5 Gy; vs control
Protocol: FIG. 8(A-B) depicts accumulation of DSBs inside cells following treatment with the compounds. A. Representative images for HeLa cells subjected to neutral comet assay following treatment with SCR116 and SCR132 for 24 h. […] FIG. 8C, D are representative images for Nalm6 cells (C) and N114 cells (D) following treatment with SCR116 and SCR132 for 24 h. and FIG. 8E, F are scatter plot depicting quantification of percentage of 53BP1 foci treated with SCR116 (2, 5 μM) and SCR132 (1, 2 μM) in Nalm6 and N114.

[3] = tested on: Erlich Ascites Carcinoma (EAC) tumor; assay: Mice allograft model, Erlich Ascites Carcinoma (EAC); type: in vivo; conditions: for Tumor progression: intraperitoneal; for Tumor progression / Tumor load: alternate days; for Tumor load: oral, 8 doses, pilot
Protocol: The compounds of the present disclosure were evaluated for the anti-cancer efficacy starting from lower concentrations using Mice allograft model. Mice allograft model was developed by injecting Erlich Ascites Carcinoma (EAC) cell lines in the thigh region of the mice followed by treatment with the compounds via intraperitoneal and oral routes on alternate days (FIG. 9C).
(§2) The effect of oral dose of the compounds of the present disclosure on mice Erlich Ascites Carcinoma (EAC) and Dalton's Lymphoma (DLA) tumors were also evaluated (FIGS. 10A-F).

[4] = tested on: Dalton's Lymphoma (DLA) tumor; assay: Mice allograft model, Dalton's Lymphoma (DLA); type: in vivo; conditions: for Tumor burden: oral, 15 and 25 mg/kg, pilot
Protocol: as §2

Molt4 derived xenograft = assay: Mouse xenograft model, Molt4; type: in vivo; conditions: for Tumor volume: alternate days; for Survival: tumor control animals died by day 18
Protocol: Effect of the compounds was further evaluated in mouse xenograft model generated using Ligase IV high human leukemic cell line, Molt4. Oral doses of SCR116 and SCR132 at 10 mg/kg and 15 mg/kg respectively were administered on alternate days.

HCT116 derived xenograft = assay: Mouse xenograft model, HCT116; type: in vivo

T1 sequence (P18858 whole entry): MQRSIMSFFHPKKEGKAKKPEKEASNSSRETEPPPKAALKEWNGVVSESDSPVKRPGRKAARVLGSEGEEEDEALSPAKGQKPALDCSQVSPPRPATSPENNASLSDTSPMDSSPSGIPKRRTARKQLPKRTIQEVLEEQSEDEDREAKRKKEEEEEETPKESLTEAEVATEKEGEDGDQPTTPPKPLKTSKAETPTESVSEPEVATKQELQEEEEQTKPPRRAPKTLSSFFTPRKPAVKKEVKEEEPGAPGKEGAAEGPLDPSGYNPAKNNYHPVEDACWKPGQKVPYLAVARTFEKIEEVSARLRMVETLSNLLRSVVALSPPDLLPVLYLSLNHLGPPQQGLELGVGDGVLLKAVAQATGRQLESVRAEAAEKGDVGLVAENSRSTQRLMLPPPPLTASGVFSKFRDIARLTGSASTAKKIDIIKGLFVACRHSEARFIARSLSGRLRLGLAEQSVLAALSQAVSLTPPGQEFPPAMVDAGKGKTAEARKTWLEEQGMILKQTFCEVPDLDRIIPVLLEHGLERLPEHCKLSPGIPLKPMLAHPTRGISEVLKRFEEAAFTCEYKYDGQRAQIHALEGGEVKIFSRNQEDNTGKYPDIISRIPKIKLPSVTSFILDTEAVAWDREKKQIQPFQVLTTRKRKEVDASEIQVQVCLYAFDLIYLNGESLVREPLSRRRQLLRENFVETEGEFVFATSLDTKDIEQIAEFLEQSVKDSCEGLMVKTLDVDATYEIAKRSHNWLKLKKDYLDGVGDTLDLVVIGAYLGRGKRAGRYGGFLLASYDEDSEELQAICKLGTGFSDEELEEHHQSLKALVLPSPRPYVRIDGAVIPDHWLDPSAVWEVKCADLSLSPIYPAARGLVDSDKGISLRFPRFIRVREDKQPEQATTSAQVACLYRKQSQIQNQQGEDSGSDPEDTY

Nc1nc(S)nc(O)c1/N=C/c1sc(Cl)nc1Cl [Compound 32, (E)-6-amino-5-(((2,4-dichlorothiazol-5-yl)methylene)amino)-2-mercaptopyrimidin-4-ol]
Inhibition of end joining with Ligase I (Ligase I): no inhibition
IC50 (CEM): 3.83 µM
IC50 [1]: 10.1 µM
IC50 (L1210): 0.879 µM
IC50 (Molt3): 0.795 µM
IC50 (MCF7): 5 µM
Recombination efficiency (CA/A) ×100 ([2]; 0.5 μM): 0.006
Fold reduction in recombination efficiency ([2]; 0.5 μM, listed as SCR132): 50 fold and 50.0 fold
Recombination efficiency (CA/A) ×100 ([2]; 1 μM): 0.003
Fold reduction in recombination efficiency ([2]; 1 μM, listed as SCR132): 106 fold and 106.6 fold
DNA in the tail of the comet (HeLa cells): increased amount of DNA in the tail of the comet
Tumor progression ([3]; 5 mg/kg): inhibition of tumor progression
Tumor load ([3]; 5 and 15 mg/kg): reduced tumor load
Tumor size ([3]; selected oral dose 15 mg/kg): significant reduction in tumor size
Tumor burden [4]: reduced tumor burden
Tumor size ([4]; selected oral dose 15 mg/kg): significant reduction in tumor size
Tumor volume (Molt4 derived xenograft; oral 15 mg/kg): effectively reduced the tumor volume
Survival (Molt4 derived xenograft; oral 15 mg/kg): survived the entire experimental period
Tumor volume (HCT116 derived xenograft): significant reduction in tumor volume

Nc1nc(S)nc(O)c1/N=C/c1ccc([N+](=O)[O-])s1 [Compound 16, (E)-6-amino-2-mercapto-5-(((5-nitrothiophen-2-yl)methylene)amino)pyrimidin-4-ol]
Inhibition of end joining with Ligase I (Ligase I): no inhibition
IC50 (CEM): 5.77 µM
IC50 [1]: 14.1 µM
IC50 (L1210): 3.75 µM
IC50 (Molt3): 3.1 µM
IC50 (MCF7): 10 µM
Recombination efficiency (CA/A) ×100 ([2]; 1 μM): 0.030
Fold reduction in recombination efficiency ([2]; 1 μM, listed as SCR116): 9 fold and 9.0 fold
Recombination efficiency (CA/A) ×100 ([2]; 2 μM): 0.005
Fold reduction in recombination efficiency ([2]; 2 μM, listed as SCR116): 54 fold and 54.0 fold
DNA in the tail of the comet (HeLa cells): increased amount of DNA in the tail of the comet
Tumor progression ([3]; 10 mg/kg): inhibition of tumor progression
Tumor load ([3]; 10 and 30 mg/kg): reduced tumor load
Tumor size ([3]; selected oral dose 10 mg/kg): significant reduction in tumor size
Tumor burden [4]: reduced tumor burden
Tumor size ([4]; selected oral dose 10 mg/kg): significant reduction in tumor size
Tumor volume (Molt4 derived xenograft; oral 10 mg/kg): effectively reduced the tumor volume
Survival (Molt4 derived xenograft; oral 10 mg/kg): survived the entire experimental period
Tumor volume (HCT116 derived xenograft): significant reduction in tumor volume
